In general, melting point refers to the temperature, or range, at which the solid turns liquid. For `O=C(Oc1cc([N+](=O)[O-])ccc1[N+](=O)[O-])c1cc2ccccc2oc1=O`, the melting point was in the range of 223 to 225 °C.

In the case of `Cc1ccc2oc(=O)c(C(=O)Oc3cc([N+](=O)[O-])ccc3[N+](=O)[O-])cc2c1`, the melting point fell in the range of 225 to 229 °C.

In turn, `O=C(Oc1cc([N+](=O)[O-])ccc1[N+](=O)[O-])c1cc2cc(CCl)ccc2oc1=O` yielded a melting point of 153 to 157 °C.

The molecule `CC(=O)OCc1ccc2oc(=O)c(C(=O)Oc3cc([N+](=O)[O-])ccc3[N+](=O)[O-])cc2c1` showed a melting point of 162 to 164 °C.

Consider `O=C(Nc1cccnc1)c1cc2cc(CCl)ccc2oc1=O` [II1, N-(3-pyridyl)-6-chloromethyl-2-oxo-2H-1-benzopyran-3-carboxamide], for which the melting point was 270 °C (dec.).

On to `O=C(Nc1cccnc1Cl)c1cc2cc(CCl)ccc2oc1=O` [II2, N-(2-chloro-3-pyridyl)-6-chloromethyl-2-oxo-2H-1-benzopyran-3-carboxamide], for which the melting point is 211 °C (dec.).

On to `COc1ccc(NC(=O)c2cc3cc(CCl)ccc3oc2=O)cn1` [II3, N-(6-methoxy-3-pyridyl)-6-chloromethyl-2-oxo-2H-1-benzopyran-3-carboxamide], for which the melting point is 225 °C (dec.).

Turning to `O=C(NSc1ncccc1[N+](=O)[O-])c1cc2cc(CCl)ccc2oc1=O` [IV1, N-[(3-nitro-2-pyridyl)sulfanyl]-6-chloromethyl-2-oxo-2H-1-benzopyran-3-carboxamide], the melting point lay within 252 to 254 °C.

`O=C(Oc1cc(F)ccc1Br)c1cc2ccccc2oc1=O` [Ia6, 2-bromo-5-fluorophenyl 2-oxo-2H-1-benzopyran-3-carboxylate]: the melting point lay within 173 to 175 °C.

Turning to `O=C(Oc1cc(F)ccc1[N+](=O)[O-])c1cc2ccccc2oc1=O` [Ia7, 5-fluoro-2-nitrophenyl 2-oxo-2H-1-benzopyran-3-carboxylate], the melting point was in the range of 219 to 223 °C.

Turning to `O=C(Oc1cccc2cnccc12)c1cc2ccccc2oc1=O` [Ia9, 5-isoquinolyl 2-oxo-2H-1-benzopyran-3-carboxylate], the melting point was in the range of 190 to 193 °C.

For the molecule `O=C(Oc1cc2ccccc2cn1)c1cc2ccccc2oc1=O` [Ia10, 3-isoquinolyl 2-oxo-2H-1-benzopyran-3-carboxylate], the melting point is 160 to 163 °C.

Consider `Cc1ccc2oc(=O)c(C(=O)Oc3cc(F)ccc3F)cc2c1` [Ib4, 2,5-difluorophenyl 6-methyl-2-oxo-2H-1-benzopyran-3-carboxylate], for which the melting point fell in the range of 155 to 159 °C.

Take `Cc1ccc2oc(=O)c(C(=O)Oc3cc(F)ccc3Br)cc2c1` [Ib5, 2-bromo-5-fluorophenyl 6-methyl-2-oxo-2H-1-benzopyran-3-carboxylate]: the melting point was in the range of 187 to 190 °C.

`Cc1ccc2oc(=O)c(C(=O)Oc3cc(F)ccc3[N+](=O)[O-])cc2c1` [Ib6, 5-fluoro-2-nitrophenyl 6-methyl-2-oxo-2H-1-benzopyran-3-carboxylate] yielded a melting point of 224 to 226 °C.

With `Cc1ccc2oc(=O)c(C(=O)Oc3cccc4cnccc34)cc2c1` [Ib8, 5-isoquinolyl 6-methyl-2-oxo-2H-1-benzopyran-3-carboxylate], the melting point lay within 188 to 190 °C.

In turn, `O=C(OC1CCCCC1)c1cc2cc(CCl)ccc2oc1=O` [Ic′1, cyclohexyl 6-chloromethyl-2-oxo-2H-1-benzopyran-3-carboxylate] yielded a melting point of 185 to 186 °C.

For `O=C(OC1CCCCCC1)c1cc2cc(CCl)ccc2oc1=O` [Ic′2, cycloheptyl 6-chloromethyl-2-oxo-2H-1-benzopyran-3-carboxylate], the melting point lay within 171 to 174 °C.

`O=C(OC1CCCCCCC1)c1cc2cc(CCl)ccc2oc1=O` [Ic′3, cyclooctyl 6-chloromethyl-2-oxo-2H-1-benzopyran-3-carboxylate] came in with a melting point of 169 to 170 °C.

`O=C(OC1CCCCCCCCCCC1)c1cc2cc(CCl)ccc2oc1=O` [Ic′4, cyclododecyl 6-chloromethyl-2-oxo-2H-1-benzopyran-3-carboxylate]: the melting point is 164 to 167 °C.

On to `Cc1cncc(OC(=O)c2cc3cc(CCl)ccc3oc2=O)c1` [Ic′″2, 5-methyl-3-pyridyl 6-chloromethyl-2-oxo-2H-1-benzopyran-3-carboxylate], for which the melting point was 211 °C (dec.).

As for `Cc1ccc(OC(=O)c2cc3cc(CCl)ccc3oc2=O)cn1` [Ic′″3, 6-methyl-3-pyridyl 6-chloromethyl-2-oxo-2H-1-benzopyran-3-carboxylate], the melting point was 205 to 208 °C.

In the case of `O=C(Oc1cccnc1Cl)c1cc2cc(CCl)ccc2oc1=O` [Ic′″4, 2-chloro-3-pyridyl 6-chloromethyl-2-oxo-2H-1-benzopyran-3-carboxylate], the melting point was 198 to 200 °C.

Molecule `O=C(Oc1cccnc1Br)c1cc2cc(CCl)ccc2oc1=O` [Ic′″6, 2-bromo-3-pyridyl 6-chloromethyl-2-oxo-2H-1-benzopyran-3-carboxylate] had a melting point of 197 to 199 °C.

On to `O=C(Oc1cccnc1[N+](=O)[O-])c1cc2cc(CCl)ccc2oc1=O` [Ic′″7, 2-nitro-3-pyridyl 6-chloromethyl-2-oxo-2H-1-benzopyran-3-carboxylate], for which the melting point lay in the range of 190 to 193 °C.

Take `Cc1ccc(OC(=O)c2cc3cc(CCl)ccc3oc2=O)c([N+](=O)[O-])n1` [Ic′″8, 6-methyl-2-nitro-3-pyridyl 6-chloromethyl-2-oxo-2H-1-benzopyran-3-carboxylate]: the melting point fell in the range of 203 to 208 °C.

Molecule `O=C(Oc1cc(F)ccc1Br)c1cc2cc(CCl)ccc2oc1=O` [Ic″9, 2-bromo-5-fluorophenyl 6-chloromethyl-2-oxo-2H-1-benzopyran-3-carboxylate] came in with a melting point of 203 to 205 °C.

For the molecule `O=C(Oc1cc(F)ccc1[N+](=O)[O-])c1cc2cc(CCl)ccc2oc1=O` [Ic″10, 5-fluoro-2-nitrophenyl 6-chloromethyl-2-oxo-2H-1-benzopyran-3-carboxylate], the melting point is 205 to 208 °C.

In the case of `O=C(Oc1cccc2cccnc12)c1cc2cc(CCl)ccc2oc1=O` [Ic″″1, 8-quinolyl 6-chloromethyl-2-oxo-2H-1-benzopyran-3-carboxylate], the melting point is 127 °C (dec.).

Molecule `O=C(Oc1ccc2ncccc2c1)c1cc2cc(CCl)ccc2oc1=O` [Ic″″2, 6-quinolyl 6-chloromethyl-2-oxo-2H-1-benzopyran-3-carboxylate] showed a melting point of 205 to 208 °C.

`CCC(=O)OCc1ccc2oc(=O)c(C(=O)Oc3ccccc3)cc2c1` [Id5, phenyl 6-propionyloxymethyl-2-oxo-2H-1-benzopyran-3-carboxylate] displayed a melting point of 186 to 187 °C.

`CC(=O)OCc1ccc2oc(=O)c(C(=O)Oc3cc(Cl)cc(Cl)c3)cc2c1` [Id13, 3,5-dichlorophenyl 6-acetoxymethyl-2-oxo-2H-1-benzopyran-3-carboxylate]: the melting point was 146 to 150 °C.

In turn, `CC(=O)OCc1ccc2oc(=O)c(C(=O)Oc3cc(F)ccc3Br)cc2c1` [Id14, 2-bromo-5-fluorophenyl 6-acetoxymethyl-2-oxo-2H-1-benzopyran-3-carboxylate] returned a melting point of 148 to 150 °C.

`CC(=O)OCc1ccc2oc(=O)c(C(=O)Oc3cc(F)ccc3[N+](=O)[O-])cc2c1` [Id15, 5-fluoro-2-nitrophenyl 6-acetoxymethyl-2-oxo-2H-1-benzopyran-3-carboxylate]: the melting point lay in the range of 157 to 161 °C.

These data come from patent US6355658B1, “Coumarin derivatives, methods of preparation and application as medicines” (Centre National de la Recherche Scientifique, priority 1997, dated 2002).
